These are literature values, as cited in patent publication US20120245518A1, “PHARMACEUTICAL COMPOSITION FOR THE TREATMENT OF BLADDER DISORDERS” (Ritcher Gedeon NYRT., priority 2009, published 2012).

The data set deals with matrix metalloproteinases, particularly the MMP-9.

Consider sodium hyaluronate, for which the “inhibitory effect on matrix metalloproteinases, particularly MMP-9” value is reported as “does not show the latter effect”.
